Results reported in US20100151104A1, “Preservative System For Beverages Based On Combinations Of Trans-Cinnamic Acid, Lauric Arginate, And Dimethyl Dicarbonate” (priority 2008, published 2010).
Several values for one entry are separate records, joined by “and”; a condition that tells them apart may be missing. Equal entries are not always repeated.

Experiments:
[1] = test system: Brettanomyces bruxellensus; assay: Growth in 10% apple juice beverage with combinations of LAE & cinnamic acid; log (QA/Qa+QB/Qb) calculation; format: cell-based
Description: Trans-cinnamic acid and lauric arginate were combined in the following beverage formulation: [table] […] The analysis of the interaction between lauric arginate and cinnamic acid can be refined through use of a mathematical method developed by Voorspuij and Nass (Arch. Int. pharmacodyn. 59:211 1957) (generally accepted among those practiced in the art.) Herein, the interactions between two active substances can be explored. First the quantity (Qa=Molar Cone) of compound A required for an end point (concentration required to stabilize product for 16 weeks) is established. Similarly, the quantity (Qb =Molar cone) of substance B required to establish the same endpoint is established. Thereafter, mixtures of A & B, in quantities QA & Qs are established that also define endpoints. […] If the sum of the ratios for a mixture of A & Bare=1, then the interaction is considered additive. […] Calculation of log (QA/Qa+QB/Qb) for LAE+trans Cinnamic Acid vs Brettanomyces bruzellensus

[2] = pKa and un-dissociated fraction of cinnamic acid; format: physicochemical
Description: It should be noted that cinnamic acid has a particularly high plc, value (4.42) and at least 45% of the cinnamic acid added to beverage is in the form of the un-dissociated acid.

fungal strains = conditions: prior art; incubation no greater than 72 hours; cited from earlier work
[3] = test system: Zygosaccharomyces bisporous and Zygosaccharomyces bailii; assay: Tolerance of fungal strains to cinnamic acid over 16 weeks incubation; format: cell-based
Experimental: Over a period of incubation of 16 weeks, fungal strains are found to be tolerant to cinnamic acid at concentrations as high as 300 ppm, or even as high as 450 ppm cinnamic acid (pH 3.4). Thus, cinnamic acid, as a stand alone preservative, would need to be present at a concentrations as high as 450 ppm (e.g. between 450-500) in order to be assured that of preservation against spoilage by organisms such as Zygosaccharomyces bisporous and Zygosaccharomyces bailii for a period of at least 16 weeks. […] Beverage product case packaged in a container and which must pass through lengthy channels of distribution before reaching the consumer need be stable for a period as long as 16 weeks.

yeast and mold = conditions: recommended by inventor & manufacturer of LAE; cited from earlier work
[4] = stand alone, end point = concentration required to stabilize product for 16 weeks

For `O=C(O)/C=C/c1ccccc1` [Cinnamic Acid, trans-cinnamic acid], the “QA/Qa + QB/Qb” value ([1]; QLAE 0, QCA 75) was 1.00, the “QLAE/QLAE*” value ([1]; QLAE 0, QCA 75) was 0.00 and the “QNaB/QNAB*” value ([1]; QLAE 0, QCA 75) was 1.00. For the same compound, the “log (QA/Qa + QB/Qb)” value ([1]; QLAE 0, QCA 75) was 0.0000, the “amount of growth (normalized) to control” value ([1]; pH 3.0, LAE 0 ppm, Cinnamic Acid 10 ppm) was 85% and the “amount of growth (normalized) to control” value ([1]; pH 3.0, LAE 0 ppm, Cinnamic Acid 20 ppm) was 82%. For the same compound, the “amount of growth (normalized) to control” value ([1]; pH 3.0, LAE 0 ppm, Cinnamic Acid 50 ppm) was 4%, the “amount of growth (normalized) to control” value ([1]; pH 3.0, LAE 0 ppm, Cinnamic Acid 75 ppm) was 1% and the “amount of growth (normalized) to control” value ([1]; pH 3.0, LAE 0 ppm, Cinnamic Acid 100 ppm) was 1%. The “amount of growth (normalized) to control” value ([1]; pH 3.5, LAE 0 ppm, Cinnamic Acid 10 ppm) was 90%, the “amount of growth (normalized) to control” value ([1]; pH 3.5, LAE 0 ppm, Cinnamic Acid 20 ppm) was 89% and the “amount of growth (normalized) to control” value ([1]; pH 3.5, LAE 0 ppm, Cinnamic Acid 50 ppm) was 27%. The “amount of growth (normalized) to control” value ([1]; pH 3.5, LAE 0 ppm, Cinnamic Acid 75 ppm) was 0%, the “amount of growth (normalized) to control” value ([1]; pH 3.5, LAE 0 ppm, Cinnamic Acid 100 ppm) was 0% and the “amount of growth (normalized) to control” value ([1]; pH 4.0, LAE 0 ppm, Cinnamic Acid 10 ppm) was 99%. For the same compound, the “amount of growth (normalized) to control” value ([1]; pH 4.0, LAE 0 ppm, Cinnamic Acid 20 ppm) was 96%, the “amount of growth (normalized) to control” value ([1]; pH 4.0, LAE 0 ppm, Cinnamic Acid 50 ppm) was 65% and the “amount of growth (normalized) to control” value ([1]; pH 4.0, LAE 0 ppm, Cinnamic Acid 75 ppm) was 1%. The “amount of growth (normalized) to control” value ([1]; pH 4.0, LAE 0 ppm, Cinnamic Acid 100 ppm) was 1%, the “QCA* (quantity of cinnamic acid alone required for the end point)” value [1, 4] was “QCA* 75” and the “cinnamic acid in the form of the un-dissociated acid” value ([2]; beverage pH 4.5) was “at least 45%”. The “cinnamic acid in the form of the un-dissociated acid” value ([2]; pH 5.5) was ≤ 7.6%, the MIC (fungal strains) was 125-180 ppm and the “concentration of cinnamic acid to which fungal strains are tolerant” value ([3]; incubation of 16 weeks, pH 3.4) was 300 ppm and 450 ppm. For the same compound, the “stand alone concentration needed for preservation against spoilage for at least 16 weeks” value ([3]; stand alone preservative, 16 weeks) was 450-500 ppm.

In the case of `CCCCCCCCCCCC(=O)N[C@@H](CCCNC(=N)N)C(=O)OCC.Cl` [LAE, ethyl-N-lauroyl-L-argniate hydrochloride], the “amount of growth (normalized) to control” value ([1]; pH 3.0, LAE 2.5 ppm, Cinnamic Acid 0 ppm) is reported as 97%, the “amount of growth (normalized) to control” value ([1]; pH 3.0, LAE 5 ppm, Cinnamic Acid 0 ppm) is reported as 101% and the “amount of growth (normalized) to control” value ([1]; pH 3.0, LAE 7.5 ppm, Cinnamic Acid 0 ppm) is reported as 96%. For the same compound, the “amount of growth (normalized) to control” value ([1]; pH 3.0, LAE 10 ppm, Cinnamic Acid 0 ppm) was 102%, the “amount of growth (normalized) to control” value ([1]; pH 3.0, LAE 15 ppm, Cinnamic Acid 0 ppm) was 94% and the “amount of growth (normalized) to control” value ([1]; pH 3.5, LAE 2.5 ppm, Cinnamic Acid 0 ppm) was 96%. The “amount of growth (normalized) to control” value ([1]; pH 3.5, LAE 5 ppm, Cinnamic Acid 0 ppm) was 106%, the “amount of growth (normalized) to control” value ([1]; pH 3.5, LAE 7.5 ppm, Cinnamic Acid 0 ppm) was 110% and the “amount of growth (normalized) to control” value ([1]; pH 3.5, LAE 10 ppm, Cinnamic Acid 0 ppm) was 114%. For the same compound, the “amount of growth (normalized) to control” value ([1]; pH 3.5, LAE 15 ppm, Cinnamic Acid 0 ppm) was 118%, the “amount of growth (normalized) to control” value ([1]; pH 4.0, LAE 2.5 ppm, Cinnamic Acid 0 ppm) was 115% and the “amount of growth (normalized) to control” value ([1]; pH 4.0, LAE 5 ppm, Cinnamic Acid 0 ppm) was 125%. For the same compound, the “amount of growth (normalized) to control” value ([1]; pH 4.0, LAE 7.5 ppm, Cinnamic Acid 0 ppm) was 124%, the “amount of growth (normalized) to control” value ([1]; pH 4.0, LAE 10 ppm, Cinnamic Acid 0 ppm) was 124% and the “amount of growth (normalized) to control” value ([1]; pH 4.0, LAE 15 ppm, Cinnamic Acid 0 ppm) was 131%. The “QLAE* (quantity of LAE alone required for the end point)” value [1, 4] was “QLAE* 30” and the “recommended stand alone concentration to stabilize beverages against spoilage” value (yeast and mold) was 128 ppm.
